Measured values as given in article PMC5218480 (PLoS ONE, 2017).

Tested on: MV-4-11 cells
Assay: Gene expression microarray analysis (Affymetrix PrimeView) and GSEA
Format: cell-based, human
Set-up: RFU PODN (11730768_x_at) / Fold change /veh PODN (11730768_x_at) / RFU LINC00158 (11744669_a_at) / Fold change /veh LINC00158 (11744669_a_at) / RFU DUSP10 (11751237_a_at) / Fold change /veh DUSP10 (11751237_a_at) / RFU ID3 (11757404_x_at) / Fold change /veh ID3 (11757404_x_at) / RFU PLEKHG5 (11737974_s_at) / Fold change /veh PLEKHG5 (11737974_s_at) / RFU LRRC4B (11730491_at) / Fold change /veh LRRC4B (11730491_at) / RFU GIMAP4 (11747438_a_at) / Fold change /veh GIMAP4 (11747438_a_at) / RFU KRT8 (11758183_x_at) / Fold change /veh KRT8 (11758183_x_at) / RFU CNN1 (11734310_a_at) / Fold change /veh CNN1 (11734310_a_at) / RFU VPS37D (11726825_at) / Fold change /veh VPS37D (11726825_at) / RFU C10orf10 (11716522_x_at) / Fold change /veh C10orf10 (11716522_x_at) / RFU KIR2DL2 /// KIR2DL4 /// KIR2DL5A /// KIR2DL5B /// KIR2DS1 /// KIR2DS2 /// KIR2DS3 /// KIR2DS4 /// KIR3DL3 /// KIR3DL3 /// KIR3DS1 (11738374_at) / Fold change /veh KIR2DL2 /// KIR2DL4 /// KIR2DL5A /// KIR2DL5B /// KIR2DS1 /// KIR2DS2 /// KIR2DS3 /// KIR2DS4 /// KIR3DL3 /// KIR3DL3 /// KIR3DS1 (11738374_at) / RFU C1QL1 (11718748_at) / Fold change /veh C1QL1 (11718748_at) / RFU TMPRSS4 (11747572_a_at) / Fold change /veh TMPRSS4 (11747572_a_at) / RFU HAMP (11756126_x_at) / Fold change /veh HAMP (11756126_x_at) / RFU RNFT2 (11725882_a_at) / Fold change /veh RNFT2 (11725882_a_at) / RFU NR4A2 (11747474_a_at) / Fold change /veh NR4A2 (11747474_a_at) / RFU ABCC12 (11746883_a_at) / Fold change /veh ABCC12 (11746883_a_at) / RFU TMEM136 (11760407_x_at) / Fold change /veh TMEM136 (11760407_x_at) / RFU CLDN22 /// WWC2 (11732394_at) / Fold change /veh CLDN22 /// WWC2 (11732394_at) / RFU HLA-DPB1 (11760878_x_at) / Fold change /veh HLA-DPB1 (11760878_x_at) / RFU SPINT1 (11716480_a_at) / Fold change /veh SPINT1 (11716480_a_at) / RFU GAP43 (11754022_s_at) / Fold change /veh GAP43 (11754022_s_at) / RFU A4GNT (11735810_at) / Fold change /veh A4GNT (11735810_at) / RFU PRB3 (11715151_x_at) / Fold change /veh PRB3 (11715151_x_at) / RFU TUBB4B (11761932_at) / Fold change /veh TUBB4B (11761932_at) / RFU CAPN14 (11732068_a_at) / Fold change /veh CAPN14 (11732068_a_at) / RFU TMCC2 (11721928_a_at) / Fold change /veh TMCC2 (11721928_a_at) / RFU IRGQ (11745062_a_at) / Fold change /veh IRGQ (11745062_a_at) / RFU FAM174B (11720279_a_at) / Fold change /veh FAM174B (11720279_a_at) / RFU TMPRSS4 (11748680_a_at) / Fold change /veh TMPRSS4 (11748680_a_at) / RFU FAM212B (11763350_a_at) / Fold change /veh FAM212B (11763350_a_at) / RFU PLEKHG5 (11743358_a_at) / Fold change /veh PLEKHG5 (11743358_a_at) / RFU ZSCAN30 (11745921_a_at) / Fold change /veh ZSCAN30 (11745921_a_at) / RFU CMKLR1 (11741424_a_at) / Fold change /veh CMKLR1 (11741424_a_at) / RFU LOC101060620 /// MAPK8IP1 (11723275_at) / Fold change /veh LOC101060620 /// MAPK8IP1 (11723275_at) / RFU SPTSSB (11747773_x_at) / Fold change /veh SPTSSB (11747773_x_at) / RFU PRSS12 (11739890_at) / Fold change /veh PRSS12 (11739890_at) / RFU BIN1 (11741810_x_at) / Fold change /veh BIN1 (11741810_x_at) / RFU WNT11 (11732464_a_at) / Fold change /veh WNT11 (11732464_a_at) / RFU C10orf10 (11716521_a_at) / Fold change /veh C10orf10 (11716521_a_at) / RFU C5orf56 (11738089_at) / Fold change /veh C5orf56 (11738089_at) / RFU CYB561 (11721691_x_at) / Fold change /veh CYB561 (11721691_x_at) / RFU ANKRD19P (11752326_a_at) / Fold change /veh ANKRD19P (11752326_a_at) / RFU OR2T12 /// OR2T33 /// OR2T8 (11738714_s_at) / Fold change /veh OR2T12 /// OR2T33 /// OR2T8 (11738714_s_at) / RFU VCAN (11748164_a_at) / Fold change /veh VCAN (11748164_a_at) / RFU JSRP1 (11732532_at) / Fold change /veh JSRP1 (11732532_at) / RFU KRTAP10-11 (11738290_x_at) / Fold change /veh KRTAP10-11 (11738290_x_at) / RFU MYO3A (11730013_a_at) / Fold change /veh MYO3A (11730013_a_at) / RFU EBF3 (11725865_a_at) / Fold change /veh EBF3 (11725865_a_at) / RFU CAMK2N1 (11719241_x_at) / Fold change /veh CAMK2N1 (11719241_x_at) / RFU C5orf56 (11738088_a_at) / Fold change /veh C5orf56 (11738088_a_at) / RFU OLFML3 (11715873_a_at) / Fold change /veh OLFML3 (11715873_a_at) / RFU LOC100653217 /// NTM (11731650_a_at) / Fold change /veh LOC100653217 /// NTM (11731650_a_at) / RFU MAPK11 (11762145_a_at) / Fold change /veh MAPK11 (11762145_a_at) / RFU FIZ1 (11724087_x_at) / Fold change /veh FIZ1 (11724087_x_at) / RFU OASL (11726364_x_at) / Fold change /veh OASL (11726364_x_at) / RFU SOX15 (11748057_x_at) / Fold change /veh SOX15 (11748057_x_at) / RFU CD79A (11719716_a_at) / Fold change /veh CD79A (11719716_a_at) / RFU HIST1H1D (11736915_at) / Fold change /veh HIST1H1D (11736915_at) / RFU CASKIN2 (11723855_a_at) / Fold change /veh CASKIN2 (11723855_a_at) / RFU LOC730098 (11760151_x_at) / Fold change /veh LOC730098 (11760151_x_at) / RFU OR4N2 (11742367_at) / Fold change /veh OR4N2 (11742367_at) / RFU PRRT2 (11749266_a_at) / Fold change /veh PRRT2 (11749266_a_at) / RFU SNX32 (11753110_a_at) / Fold change /veh SNX32 (11753110_a_at) / RFU CDHR5 (11726645_a_at) / Fold change /veh CDHR5 (11726645_a_at) / RFU RCAN1 (11760418_a_at) / Fold change /veh RCAN1 (11760418_a_at) / RFU FAM167A (11723789_a_at) / Fold change /veh FAM167A (11723789_a_at) / RFU FAM26E (11764081_at) / Fold change /veh FAM26E (11764081_at) / RFU ISYNA1 (11749810_s_at) / Fold change /veh ISYNA1 (11749810_s_at) / RFU ACY1 (11761880_at) / Fold change /veh ACY1 (11761880_at) / RFU 11764098_at / Fold change /veh 11764098_at / RFU SAMD14 (11745864_x_at) / Fold change /veh SAMD14 (11745864_x_at) / RFU NPB (11741838_a_at) / Fold change /veh NPB (11741838_a_at) / RFU TMPRSS6 (11731388_a_at) / Fold change /veh TMPRSS6 (11731388_a_at) / RFU KRTAP10-2 (11738614_at) / Fold change /veh KRTAP10-2 (11738614_at) / RFU ARHGAP8 /// PRR5-ARHGAP8 (11727945_x_at) / Fold change /veh ARHGAP8 /// PRR5-ARHGAP8 (11727945_x_at) / RFU KRTAP5-7 /// NADSYN1 (11734609_at) / Fold change /veh KRTAP5-7 /// NADSYN1 (11734609_at) / RFU RASL12 (11751679_a_at) / Fold change /veh RASL12 (11751679_a_at) / RFU CDKN2B (11736163_a_at) / Fold change /veh CDKN2B (11736163_a_at) / RFU PRF1 (11729649_at) / Fold change /veh PRF1 (11729649_at) / RFU, ZNF638 /// ZNF638-IT1 / Fold change vs veh, ZNF638 /// ZNF638-IT1 / RFU, PANK3 / Fold change vs veh, PANK3 / RFU, SH3YL1 / Fold change vs veh, SH3YL1 / RFU, ZEB2 / Fold change vs veh, ZEB2 / RFU, NRIP1 / Fold change vs veh, NRIP1 / RFU, PTTG1IP / Fold change vs veh, PTTG1IP / RFU, CAPN2 / Fold change vs veh, CAPN2 / RFU, MED14 / Fold change vs veh, MED14 / RFU, SNORA58 / Fold change vs veh, SNORA58 / RFU, C1orf63 / Fold change vs veh, C1orf63 / RFU, LRRFIP1 / Fold change vs veh, LRRFIP1 / RFU, NDUFAF7 / Fold change vs veh, NDUFAF7 / RFU, SLC12A2 / Fold change vs veh, SLC12A2 / RFU, IBTK / Fold change vs veh, IBTK / RFU, ESF1 / Fold change vs veh, ESF1 / Fold change vs veh, TMEM50B / RFU, TAOK1 / Fold change vs veh, TAOK1 / RFU, ACBD3 / Fold change vs veh, ACBD3 / RFU, TMA16 / Fold change vs veh, TMA16 / RFU, RWDD3 / Fold change vs veh, RWDD3 / RFU, BCAT1 / Fold change vs veh, BCAT1 / RFU, EDEM3 / Fold change vs veh, EDEM3 / RFU, TMEM33 / Fold change vs veh, TMEM33 / RFU, WDR75 / Fold change vs veh, WDR75 / RFU, AHCTF1 / Fold change vs veh, AHCTF1 / RFU, TFRC / Fold change vs veh, TFRC / RFU, ZDHHC17 / Fold change vs veh, ZDHHC17 / RFU, NOM1 / Fold change vs veh, NOM1 / RFU, ARL8B / Fold change vs veh, ARL8B / RFU, ZBTB11 / Fold change vs veh, ZBTB11 / RFU, TAMM41 / Fold change vs veh, TAMM41 / RFU, KIAA1704 /// LOC100996395 / Fold change vs veh, KIAA1704 /// LOC100996395 / RFU, ING1 / Fold change vs veh, ING1 / RFU, TRMT61B / Fold change vs veh, TRMT61B / RFU, FUBP3 / Fold change vs veh, FUBP3 / RFU, TP53 / Fold change vs veh, TP53 / RFU, TNKS2 / Fold change vs veh, TNKS2 / RFU, ZFP14 / Fold change vs veh, ZFP14 / RFU, ACTR2 / Fold change vs veh, ACTR2 / RFU, PPP3R1 / Fold change vs veh, PPP3R1 / RFU, PIK3R1 / Fold change vs veh, PIK3R1 / RFU, HNRNPA1 / Fold change vs veh, HNRNPA1 / RFU, RNF170 / Fold change vs veh, RNF170 / RFU, ZNF28 / Fold change vs veh, ZNF28 / RFU, RNGTT / Fold change vs veh, RNGTT / RFU, OGT / Fold change vs veh, OGT / RFU, BRD1 / Fold change vs veh, BRD1 / RFU, MARS / Fold change vs veh, MARS / RFU, ZNF655 / Fold change vs veh, ZNF655 / RFU, FAHD1 / Fold change vs veh, FAHD1 / RFU, BDP1 / Fold change vs veh, BDP1 / RFU, LRRCC1 / Fold change vs veh, LRRCC1 / RFU, ARID1A / Fold change vs veh, ARID1A / RFU, ZNF146 / Fold change vs veh, ZNF146 / RFU, ZNF330 / Fold change vs veh, ZNF330 / RFU, GPN3 / Fold change vs veh, GPN3 / RFU, C9orf123 / Fold change vs veh, C9orf123 / RFU, N4BP2L2 / Fold change vs veh, N4BP2L2 / RFU, ARFIP1 / Fold change vs veh, ARFIP1 / RFU, FAM179B / Fold change vs veh, FAM179B / RFU, BCL10 / Fold change vs veh, BCL10 / RFU, UHRF1BP1L / Fold change vs veh, UHRF1BP1L / RFU, BET1 / Fold change vs veh, BET1 / RFU, CNOT2 / Fold change vs veh, CNOT2 / RFU, ZNF268 / Fold change vs veh, ZNF268 / Fold change vs veh, ZNF507 / RFU, DGCR2 / Fold change vs veh, DGCR2 / RFU, WDSUB1 / Fold change vs veh, WDSUB1 / Fold change vs veh, HSP90B1 /// MIR3652 / RFU, ADSS / Fold change vs veh, ADSS / RFU, GK / Fold change vs veh, GK / RFU, ZNF148 / Fold change vs veh, ZNF148 / RFU, TAF9 / Fold change vs veh, TAF9 / RFU, SLC1A5 / Fold change vs veh, SLC1A5 / RFU, SLMO2 / Fold change vs veh, SLMO2 / RFU, ABCC4 / Fold change vs veh, ABCC4 / RFU, LOC101060439 /// RAP1B / Fold change vs veh, LOC101060439 /// RAP1B / RFU, RFX7 / Fold change vs veh, RFX7 / RFU, GTPBP10 / Fold change vs veh, GTPBP10 / RFU, CNEP1R1 / Fold change vs veh, CNEP1R1 / RFU, BIVM-ERCC5 /// ERCC5 / Fold change vs veh, BIVM-ERCC5 /// ERCC5 / RFU, ILF3 / Fold change vs veh, ILF3 / RFU 11762660_at / Fold change /veh 11762660_at / RFU VCAN (11757783_s_at) / Fold change /veh VCAN (11757783_s_at) / RFU DDX43 (11728927_at) / Fold change /veh DDX43 (11728927_at) / RFU KRT8 (11758188_x_at) / Fold change /veh KRT8 (11758188_x_at) / RFU NKD1 (11759106_at) / Fold change /veh NKD1 (11759106_at) / RFU SRD5A1 (11742802_a_at) / Fold change /veh SRD5A1 (11742802_a_at) / RFU TPSAB1 /// TPSB2 (11721975_s_at) / Fold change /veh TPSAB1 /// TPSB2 (11721975_s_at) / RFU GSTM3 (11746129_a_at) / Fold change /veh GSTM3 (11746129_a_at) / RFU IL23R (11737362_x_at) / Fold change /veh IL23R (11737362_x_at) / RFU TMEM51 (11727254_a_at) / Fold change /veh TMEM51 (11727254_a_at) / RFU PIWIL2 (11732686_x_at) / Fold change /veh PIWIL2 (11732686_x_at) / RFU ORM1 (11744905_x_at) / Fold change /veh ORM1 (11744905_x_at) / RFU CCDC152 (11743942_at) / Fold change /veh CCDC152 (11743942_at) / RFU ECM1 (11717891_a_at) / Fold change /veh ECM1 (11717891_a_at) / RFU IL23R (11748794_a_at) / Fold change /veh IL23R (11748794_a_at) / RFU TNFAIP8L3 (11732012_x_at) / Fold change /veh TNFAIP8L3 (11732012_x_at) / RFU MBOAT4 (11741988_at) / Fold change /veh MBOAT4 (11741988_at) / RFU 11764193_at / Fold change /veh 11764193_at / RFU TMEM53 (11763286_at) / Fold change /veh TMEM53 (11763286_at) / RFU MAGEB2 (11727129_at) / Fold change /veh MAGEB2 (11727129_at) / RFU TMEM200A (11744735_a_at) / Fold change /veh TMEM200A (11744735_a_at) / RFU CCDC152 (11751479_a_at) / Fold change /veh CCDC152 (11751479_a_at) / RFU FAM211A (11726209_a_at) / Fold change /veh FAM211A (11726209_a_at) / RFU RGS16 (11746705_a_at) / Fold change /veh RGS16 (11746705_a_at) / RFU VCAN (11755009_s_at) / Fold change /veh VCAN (11755009_s_at) / RFU RHOB (11743442_s_at) / Fold change /veh RHOB (11743442_s_at) / RFU RGS16 (11720943_a_at) / Fold change /veh RGS16 (11720943_a_at) / RFU RGS16 (11720944_at) / Fold change /veh RGS16 (11720944_at) / RFU, VPS4B / Fold change vs veh, VPS4B / RFU, CREB1 / Fold change vs veh, CREB1 / RFU, DNAJC13 / Fold change vs veh, DNAJC13 / RFU, GNAQ / Fold change vs veh, GNAQ / RFU, CDK5R1 / Fold change vs veh, CDK5R1 / RFU, ZRANB3 / Fold change vs veh, ZRANB3 / RFU, CUL4A / Fold change vs veh, CUL4A / RFU, CCNY / Fold change vs veh, CCNY / RFU, UFL1 / Fold change vs veh, UFL1 / RFU, COG3 / Fold change vs veh, COG3 / RFU, DIAPH2 / Fold change vs veh, DIAPH2 / RFU, SKA2 / Fold change vs veh, SKA2 / RFU, AFF3 / Fold change vs veh, AFF3 / RFU, LMF1 / Fold change vs veh, LMF1 / RFU, IPO11 / Fold change vs veh, IPO11 / RFU, DFFB / Fold change vs veh, DFFB / RFU, FOXP1 / Fold change vs veh, FOXP1 / RFU, CARD8 / Fold change vs veh, CARD8 / RFU, STRN3 / Fold change vs veh, STRN3 / RFU, ADK / Fold change vs veh, ADK / RFU, RASSF2 / Fold change vs veh, RASSF2 / RFU, WIPF1 / Fold change vs veh, WIPF1 / RFU, LARP1B / Fold change vs veh, LARP1B / RFU, RASA1 / Fold change vs veh, RASA1 / RFU, RB1 / Fold change vs veh, RB1 / RFU, PPFIA1 / Fold change vs veh, PPFIA1 / RFU, MAT2A / Fold change vs veh, MAT2A / RFU, CCT5 / Fold change vs veh, CCT5 / RFU, WDR92 / Fold change vs veh, WDR92 / RFU, CUX1 / Fold change vs veh, CUX1 / RFU, TTC7A / Fold change vs veh, TTC7A / RFU, TMEM135 / Fold change vs veh, TMEM135 / RFU, DEPTOR / Fold change vs veh, DEPTOR / RFU, CPM / Fold change vs veh, CPM / RFU, DNAJB6 / Fold change vs veh, DNAJB6 / RFU, CACNA2D3 / Fold change vs veh, CACNA2D3 / RFU, DTX4 / Fold change vs veh, DTX4 / RFU, TFCP2 / Fold change vs veh, TFCP2 / RFU, GMCL1 /// GMCL1P1 / Fold change vs veh, GMCL1 /// GMCL1P1 / RFU, AEBP2 / Fold change vs veh, AEBP2 / RFU, SNHG1 /// SNORD22 /// SNORD25 /// SNORD26 /// SNORD27 /// SNORD28 /// SNORD29 /// SNORD31 / Fold change vs veh, SNHG1 /// SNORD22 /// SNORD25 /// SNORD26 /// SNORD27 /// SNORD28 /// SNORD29 /// SNORD31 / Fold change (Aza/veh), C12orf56 (ProbeSet 11735607_a_at) / Fold change (ACY-1035/veh), C12orf56 (ProbeSet 11735607_a_at) / Fold change (Aza/veh), FGFR1OP (ProbeSet 11751329_s_at) / Fold change (ACY-1035/veh), FGFR1OP (ProbeSet 11751329_s_at) / Fold change (Aza/veh), VPS36 (ProbeSet 11739960_a_at) / Fold change (ACY-1035/veh), VPS36 (ProbeSet 11739960_a_at) / RFU SYPL1 (11715823_x_at) / Fold change /veh SYPL1 (11715823_x_at) / RFU IGFBP7 (11715501_s_at) / Fold change /veh IGFBP7 (11715501_s_at) / RFU REEP3 (11722064_at) / Fold change /veh REEP3 (11722064_at) / RFU IGLL1 (11728026_x_at) / Fold change /veh IGLL1 (11728026_x_at): dose or concentration left out as unconfirmed
Details: ProbeSet 11716891_at; LIST B

Nc1ccc(-c2cccs2)cc1NC(=O)c1ccc2c(c1)cc(C1CC1)n2CCN1CCOCC1 [ACY-1035]
RFU, C9orf123: 39.54 RFU
